Common to all, as to assay: AK assay 384-well format, Prestwick library screening
Assay [1] deals with E. faecium. The format is cell-based, Enterococcus faecium. As to conditions: for fold induction at 50 µM: Enterococcus faecium, 3 h.
Assay [2] has as its system S. aureus strain USA300-0114. In kind it is cell-based, Staphylococcus aureus. The note with it: for fold induction at 50 µM: Staphylococcus aureus, USA300, 3 h.
Assay [3] relates to K. pneumoniae. In kind it is cell-based, Klebsiella pneumoniae. As to conditions: for fold induction at 50 µM: Klebsiella pneumoniae, 3 h.
Assay [4] deals with A. baumannii strain 98-37-09. The format is cell-based, Acinetobacter baumannii. The note with it: for fold induction at 50 µM: Acinetobacter baumannii, 983709, 3 h.
The subject of assay [5] is P. aeruginosa. The format is cell-based, Pseudomonas aeruginosa. The note with it: for fold induction at 50 µM: Pseudomonas aeruginosa, 3 h.
The subject of assay [6] is E. cloacae. The format is cell-based, Enterobacter cloacae. The note with it: for fold induction at 50 µM: Enterobacter cloacae, 3 h.
The subject of assay [7] is E. coli. In kind it is cell-based, Escherichia coli. The note with it: for fold induction at 50 µM: Escherichia coli, 3 h.
Where [8] appears, read: 50 μM final drug concentration, 384-well format, cutoff for positive-scoring molecules 3-fold increase.

Structures can show the parent of a compound that is named as a salt. Where two headings read alike, the source gives them in different places.

Take `COc1ccc(CC2c3cc(OC)c(OC)cc3CCN2C)cc1OC` (racemic) [Laudanosine (R,S)]: the “AK-based Prestwick Library Screening Results, E. faecium (increase in extracellular AK activity)” value in assay [1] (planktonic E. faecium, 50 μM final drug concentration, […]) came to 0.9. Besides, the “AK-based Prestwick Library Screening Results, S. aureus (increase in extracellular AK activity)” value in assay [2] (planktonic S. aureus, 50 μM final drug concentration, […]) was 0.7. Besides, the “AK-based Prestwick Library Screening Results, K. pneumoniae (increase in extracellular AK activity)” value in assay [3] (planktonic K. pneumoniae, 50 μM final drug concentration, […]) is 0.7. Also, the “AK-based Prestwick Library Screening Results, A. baumannii (increase in extracellular AK activity)” value in assay [4] (planktonic A. baumannii, 50 μM final drug concentration, […]) is recorded as 0.9. Moreover, in assay [5] (planktonic P. aeruginosa, 50 μM final drug concentration, […]), the “AK-based Prestwick Library Screening Results, P. aeruginosa (increase in extracellular AK activity)” value is 0.9. The “AK-based Prestwick Library Screening Results, E. cloacae (increase in extracellular AK activity)” value in assay [6] (planktonic E. cloacae, 50 μM final drug concentration, […]) worked out at 1.3. The “AK-based Prestwick Library Screening Results, E. coli (increase in extracellular AK activity)” value in assay [7] (planktonic E. coli, 50 μM final drug concentration, […]) is recorded as 1.0.
Consider `C[C@]12CC[C@@H]3c4ccc(OS(=O)(=O)O)cc4CC[C@H]3[C@@H]1CCC2=O` [Estropipate], for which the fold induction at 50 µM in assay [1] (50 μM final drug concentration, planktonic, cutoff for positive-scoring molecules 3-fold increase, read-out: AK-based Prestwick Library Screening Results, E. faecium (fold increase in extracellular AK activity)) came to 1; in assay [2] (50 μM final drug concentration, planktonic, cutoff for positive-scoring molecules 3-fold increase, read-out: AK-based Prestwick Library Screening Results, S. aureus (fold increase in extracellular AK activity)), 1.1; in assay [3] (50 μM final drug concentration, planktonic, cutoff for positive-scoring molecules 3-fold increase, read-out: AK-based Prestwick Library Screening Results, K. pneumoniae (fold increase in extracellular AK activity)), 1; in assay [4] (50 μM final drug concentration, planktonic, cutoff for positive-scoring molecules 3-fold increase, read-out: AK-based Prestwick Library Screening Results, A. baumannii (fold increase in extracellular AK activity)), 1; in assay [5] (50 μM final drug concentration, planktonic, cutoff for positive-scoring molecules 3-fold increase, read-out: AK-based Prestwick Library Screening Results, P. aeruginosa (fold increase in extracellular AK activity)), 1.1; in assay [6] (50 μM final drug concentration, planktonic, cutoff for positive-scoring molecules 3-fold increase, read-out: AK-based Prestwick Library Screening Results, E. cloacae (fold increase in extracellular AK activity)), 1.3. In addition, the fold induction at 50 µM in assay [7] (50 μM final drug concentration, planktonic, cutoff for positive-scoring molecules 3-fold increase, read-out: AK-based Prestwick Library Screening Results, E. coli (fold increase in extracellular AK activity)) is 1.1.
Take `CN1C(=O)CCS(=O)(=O)C1c1ccc(Cl)cc1` (centres unmarked) [Chlormezanone]: the fold induction at 50 µM in assay [1] (planktonic E. faecium, 50 μM final drug concentration, […], read-out: AK-based Prestwick Library Screening Results, E. faecium (increase in extracellular AK activity)) stood at 1; in assay [2] (planktonic S. aureus, 50 μM final drug concentration, […], read-out: AK-based Prestwick Library Screening Results, S. aureus (increase in extracellular AK activity)), 0.7; in assay [3] (planktonic K. pneumoniae, 50 μM final drug concentration, […], read-out: AK-based Prestwick Library Screening Results, K. pneumoniae (increase in extracellular AK activity)), 0.6; in assay [4] (planktonic A. baumannii, 50 μM final drug concentration, […], read-out: AK-based Prestwick Library Screening Results, A. baumannii (increase in extracellular AK activity)), 0.7; in assay [5] (planktonic P. aeruginosa, 50 μM final drug concentration, […], read-out: AK-based Prestwick Library Screening Results, P. aeruginosa (increase in extracellular AK activity)) it was 0.6; in assay [6] (planktonic E. cloacae, 50 μM final drug concentration, […], read-out: AK-based Prestwick Library Screening Results, E. cloacae (increase in extracellular AK activity)), 0.7. In assay [7] (planktonic E. coli, 50 μM final drug concentration, […], read-out: AK-based Prestwick Library Screening Results, E. coli (increase in extracellular AK activity)), the fold induction at 50 µM came out at 0.7.
With `Cc1cc(/C=C/c2ccc3cc(N(C)C)ccc3[n+]2C)c(C)n1-c1ccccc1` [Pyrvinium pamoate], the fold induction at 50 µM is 1.5 in assay [1] (planktonic E. faecium, 50 μM final drug concentration, positive cutoff 3-fold increase, read-out: AK-based Prestwick library screening result, E. faecium (fold increase in extracellular AK activity)); 1.4 in assay [2] (planktonic S. aureus, 50 μM final drug concentration, positive cutoff 3-fold increase, read-out: AK-based Prestwick library screening result, S. aureus (fold increase in extracellular AK activity)); 0.8 in assay [3] (planktonic K. pneumoniae, 50 μM final drug concentration, positive cutoff 3-fold increase, read-out: AK-based Prestwick library screening result, K. pneumoniae (fold increase in extracellular AK activity)); 0.9 in assay [4] (planktonic A. baumannii, 50 μM final drug concentration, positive cutoff 3-fold increase, read-out: AK-based Prestwick library screening result, A. baumannii (fold increase in extracellular AK activity)); 0.7 in assay [5] (planktonic P. aeruginosa, 50 μM final drug concentration, positive cutoff 3-fold increase, read-out: AK-based Prestwick library screening result, P. aeruginosa (fold increase in extracellular AK activity)); 13.2 in assay [6] (planktonic E. cloacae, 50 μM final drug concentration, positive cutoff 3-fold increase, read-out: AK-based Prestwick library screening result, E. cloacae (fold increase in extracellular AK activity)). Moreover, in assay [7] (planktonic E. coli, 50 μM final drug concentration, positive cutoff 3-fold increase, read-out: AK-based Prestwick library screening result, E. coli (fold increase in extracellular AK activity)), the fold induction at 50 µM is 0.8.
On to `C[C@]12CC[C@H]3C(=CCc4cc(O)ccc43)[C@@H]1CCC2=O` [Equilin], for which the fold induction at 50 µM in assay [1] (read-out: AK-based Prestwick Library Screening Results, E. faecium (fold increase in extracellular AK activity)) was 1; in assay [2] (read-out: AK-based Prestwick Library Screening Results, S. aureus (fold increase in extracellular AK activity)) it was 3.9; in assay [3] (read-out: AK-based Prestwick Library Screening Results, K. pneumoniae (fold increase in extracellular AK activity)), 0.9; in assay [4] (read-out: AK-based Prestwick Library Screening Results, A. baumannii (fold increase in extracellular AK activity)), 1; in assay [5] (read-out: AK-based Prestwick Library Screening Results, P. aeruginosa (fold increase in extracellular AK activity)), 1.1; in assay [6] (read-out: AK-based Prestwick Library Screening Results, E. cloacae (fold increase in extracellular AK activity)) it was 1.4. The fold induction at 50 µM in assay [7] (read-out: AK-based Prestwick Library Screening Results, E. coli (fold increase in extracellular AK activity)) was determined as 1.3.
Consider `CN(C)CCC=C1c2ccccc2COc2ccccc21` [Doxepin hydrochloride], for which the fold induction at 50 µM came out at 1 in assay [1] (50 μM final drug concentration, 384-well format, cutoff for positive-scoring molecules 3-fold increase, read-out: AK-based Prestwick Library Screening Results, E. faecium (increase in extracellular AK activity)); 0.9 in assay [2] (50 μM final drug concentration, 384-well format, cutoff for positive-scoring molecules 3-fold increase, read-out: AK-based Prestwick Library Screening Results, S. aureus (increase in extracellular AK activity)); 0.8 in assay [3] (50 μM final drug concentration, 384-well format, cutoff for positive-scoring molecules 3-fold increase, read-out: AK-based Prestwick Library Screening Results, K. pneumoniae (increase in extracellular AK activity)); 0.9 in assay [4] (50 μM final drug concentration, 384-well format, cutoff for positive-scoring molecules 3-fold increase, read-out: AK-based Prestwick Library Screening Results, A. baumannii (increase in extracellular AK activity)); 1.1 in assay [5] (50 μM final drug concentration, 384-well format, cutoff for positive-scoring molecules 3-fold increase, read-out: AK-based Prestwick Library Screening Results, P. aeruginosa (increase in extracellular AK activity)); 1 in assay [6] (50 μM final drug concentration, 384-well format, cutoff for positive-scoring molecules 3-fold increase, read-out: AK-based Prestwick Library Screening Results, E. cloacae (increase in extracellular AK activity)). Moreover, in assay [7] (50 μM final drug concentration, 384-well format, cutoff for positive-scoring molecules 3-fold increase, read-out: AK-based Prestwick Library Screening Results, E. coli (increase in extracellular AK activity)), the fold induction at 50 µM was determined as 1.1.
On to `CCC(=O)O[C@]1(C(=O)CCl)[C@@H](C)C[C@H]2[C@@H]3CCC4=CC(=O)C=C[C@]4(C)[C@@]3(F)[C@@H](O)C[C@@]21C` [Clobetasol propionate], for which the fold induction at 50 µM amounted to 1 in assay [1] (50 μM final drug concentration, cutoff for positive-scoring molecules 3-fold increase, read-out: AK-based Prestwick Library Screening Results, E. faecium (fold increase in extracellular AK activity)); 0.9 in assay [2] (50 μM final drug concentration, cutoff for positive-scoring molecules 3-fold increase, read-out: AK-based Prestwick Library Screening Results, S. aureus (fold increase in extracellular AK activity)); 1 in assay [3] (50 μM final drug concentration, cutoff for positive-scoring molecules 3-fold increase, read-out: AK-based Prestwick Library Screening Results, K. pneumoniae (fold increase in extracellular AK activity)); 1.3 in assay [4] (50 μM final drug concentration, cutoff for positive-scoring molecules 3-fold increase, read-out: AK-based Prestwick Library Screening Results, A. baumannii (fold increase in extracellular AK activity)); 1.1 in assay [5] (50 μM final drug concentration, cutoff for positive-scoring molecules 3-fold increase, read-out: AK-based Prestwick Library Screening Results, P. aeruginosa (fold increase in extracellular AK activity)); 1.3 in assay [6] (50 μM final drug concentration, cutoff for positive-scoring molecules 3-fold increase, read-out: AK-based Prestwick Library Screening Results, E. cloacae (fold increase in extracellular AK activity)). Also, in assay [7] (50 μM final drug concentration, cutoff for positive-scoring molecules 3-fold increase, read-out: AK-based Prestwick Library Screening Results, E. coli (fold increase in extracellular AK activity)), the fold induction at 50 µM turned out to be 1.2.
Turning to `Cc1c(O)c(=O)n(-c2ccccc2)n1C` [Antipyrine, 4-hydroxy], the “AK-based Prestwick Library Screening Results, E. faecium (increase in extracellular AK activity)” value in assay [1] (setting [8]) stood at 1.0. Besides, in assay [2] (setting [8]), the “AK-based Prestwick Library Screening Results, S. aureus (increase in extracellular AK activity)” value worked out at 0.7. In assay [3] (setting [8]), the “AK-based Prestwick Library Screening Results, K. pneumoniae (increase in extracellular AK activity)” value is on record as 0.7. In addition, the “AK-based Prestwick Library Screening Results, A. baumannii (increase in extracellular AK activity)” value in assay [4] (setting [8]) stood at 0.8. In addition, the “AK-based Prestwick Library Screening Results, P. aeruginosa (increase in extracellular AK activity)” value in assay [5] (setting [8]) is given as 0.8. The “AK-based Prestwick Library Screening Results, E. cloacae (increase in extracellular AK activity)” value in assay [6] (setting [8]) came out at 1.0. In addition, the “AK-based Prestwick Library Screening Results, E. coli (increase in extracellular AK activity)” value in assay [7] (setting [8]) is on record as 0.9.

The record behind these values is US10004701B2, “Methods and compositions for treating infection” (UNIVERSITY OF ROCHESTER, priority 2012, dated 2018).
